Assay results: publication PMC7821381, “Multi-Targeted Anticancer Activity of Imidazolate Phosphane Gold(I) Compounds by Inhibition of DHFR and TrxR in Breast Cancer Cells” (Frontiers in Chemistry, 2021)
Like-named read-outs stand apart in the source and are kept apart here.

Columns and labels:
A17 cells [1] = test system: A17 cells; parameters: method as in Gambini et al., 2018; conditions: A17, 24 h; ref Gambini et al., 2018; cited from earlier work
SKBR3 cells [2] = test system: SKBR3 cells; parameters: method as in Serova et al., 2006; conditions: SKBR3, 24 h; ref Serova et al., 2006; cited from earlier work
MDA-MB231 cells [3] = test system: MDA-MB231 cells; parameters: method as in Gambini et al., 2018; conditions: MDA-MB231, 48 h; ref Gambini et al., 2018; cited from earlier work
SKBR3 cells [4] = assay: MTT cell viability assay on SKBR3 cells; format: cell-based, human
Excerpt: (§1) Human MDA-MB-231 (ER–/PR–/HER2–) and SK-BR-3 (ER–/PR–/HER2+) cells were obtained from American Type Culture Collection (Rockville, MD) and cultured in Dulbecco's Modified Essential Medium (DMEM, Gibco, Life Technologies) supplemented with 10% fetal bovine serum (FBS, Gibco, Life Technologies) and 1% penicillin–streptomycin (Gibco, Life Technologies). A17 cells were established from a spontaneous lobular carcinoma that arose in an FVB/neuT mouse (Galiè et al., [2005]), and maintained in DMEM plus 20% FBS and 1% penicillin-streptomycin. Cells were cultured at 37°C under humidified atmosphere with 5% CO2.
(§2) Stock solutions were prepared for each gold(I) compound (50 mM) using dimethyl sulfoxide (DMSO) (Sigma-Aldrich) as solvent. The effects of gold(I) compounds on SKBR3, A17 and MDA-MB231 cells viability were evaluated by seeding, respectively, 10, ^*10^3, 2.5 ^*10^3, 7, ^*10^3 cells/well in 96 wells plates in complete medium (DMEM supplemented with FBS) and compared to those of cisplatin. The day after, fresh medium containing vehicle alone (DMSO, 1 % v/v final concentration) or increasing concentrations of each compound ranging from 0.1 to 100 μM was added. Cell viability was determined using a MTT [3-(4,5-dimethylthiazol-2-yl)-2,5-diphenyl-2H-tetrazolium bromide Sigma Aldrich, St. Louis, MO] assay, which is based on the conversion of MTT to formazan crystals by mitochondrial enzymes, after 24, 48, and 72 h. The formazan deposits were dissolved in DMSO and the absorbance of each well was measured at 540 nm in Multiskan Ascent 96/384 Plate Reader. Each drug concentration was evaluated with 8 replicates and each experiment was repeated three times. At the end of the experiments a dose–response curve was plotted, and the IC50 concentrations were determined. Statistical analysis was performed using One-Way ANOVA analysis of variance followed by Dunnett's Multiple Comparison Test. Quantitative data are presented as means ± SEM. Differences were considered significant at ^*P ≤ 0.0332; ^**P ≤ 0.0021; ^***P ≤ 0.0002; ^****P ≤ 0.0001.
(§3) IC50 values were calculated for each of the cell lines tested, by fitting the concentration-effect curves data obtained in the three experiments with the sigmoid-Emax model using nonlinear regression, weighted by the reciprocal of the square of the predicted effect.

DNA = test system: DNA; parameters: method as in Nafisi et al., 2007; conditions: ref Nafisi et al., 2007; cited from earlier work
MDA-MB231 cells [5] = assay: MTT cell viability assay on MDA-MB231 cells; format: cell-based, human; conditions: MDA-MB231, 24 h, ± S. D.
Excerpt: as §1
as §2, with “Statistical analysis was performed using One-Way ANOVA analysis of variance followed by Dunnett's Multiple Comparison Test.” left out, “Differences were considered significant at ^*P ≤ 0.0332; ^**P ≤ 0.0021; ^***P ≤ 0.0002; ^****P ≤ 0.0001.” left out
as §3

[6] = Stability in physiological condition; format: physicochemical
A17 cells [7] = assay: MTT cell viability assay on A17 cells; format: cell-based, murine; conditions: A17, 24 h, ± S. D.
Excerpt: as §1
as §2, with “Statistical analysis was performed using One-Way ANOVA analysis of variance followed by Dunnett's Multiple Comparison Test.” left out, “Differences were considered significant at ^*P ≤ 0.0332; ^**P ≤ 0.0021; ^***P ≤ 0.0002; ^****P ≤ 0.0001.” left out
as §3

Which IC50 (A17 cells [1]) does the source give for `N.N.[Cl][Pt][Cl]` [Cisplatin] here?
Its IC50 is 15.9 ± 1.17 µM.

What about the IC50 (SKBR3 cells [2]) of the same molecule?
Its IC50 is 43 ± 7 µM.

What about the IC50 (MDA-MB231 cells [3]) of the same molecule?
Its IC50 is 50.5 ± 2 µM.

With `O=C(O)c1ccccc1[PH]([Au][Cl])(c1ccccc1)c1ccccc1` [Compound 1, 2-benzoic-diphenylphosphanegold chloride] as the molecule, how does the “cytotoxic activity in MTT screening” value (SKBR3 cells [4]; SKBR3 cells, 72 h (Figure 1S) and 48 h (Figure 2)) read?
The value was “did not show relevant cytotoxic activity”.

For `CN(C)c1ccc2cc3ccc(N(C)C)cc3nc2c1` [acridine orange], which “binding constant of classical intercalators to DNA” value (shortened to “binding constant”) (DNA) is on record?
Its value is 26900 M⁻¹.

Which “binding constant” value (DNA) does the source give for `CC[n+]1c(-c2ccccc2)c2cc(N)ccc2c2ccc(N)cc21` [ethidium bromide] here?
The value was 65800 M⁻¹.

Which “binding constant” value (DNA) does the source give for `CN(C)c1ccc2nc3ccc(=[N+](C)C)cc-3sc2c1` [methylene blue] here?
Its value is 21300 M⁻¹.

For “(3,5-dintropyrazolyl-1H-gold(I)-(triphenylphosphane) [Compound 4]”, which IC50 (MDA-MB231 cells [5]) is on record?
The IC50 was 12.8 ± 0.7 µM.

What about the “stability in physiological condition” value [6] of the same molecule?
The value was “less stable in physiological condition”.

What about the IC50 (SKBR3 cells [4]; SKBR3, 24 h, ± S. D.) of the same molecule?
Its IC50 is 12.3 ± 1.1 µM.

What about the IC50 (A17 cells [7]) of the same molecule?
Its IC50 is 11 ± 1 µM.
